Data as given in patent US10308938B2, “Compositions and methods to activate or inhibit toll-like receptor signaling” (priority 2014, dated 2019).
Entries after “also recorded” stand apart in the source; their conditions may differ.

Tests used:
Type in all cases: cell-based, human
CD4^+ T cells [1] = assay: Conversion into regulatory T cells (Foxp3 expression, IL-10 secretion)
Description: (§1) Cell activation and intracellular staining.
(§2) Enzyme-linked immunosorbent assay.

CD4^+ T cells [2] = assay: Phosphorylation status of signaling molecules by flow cytometry; Jun gene expression
Description: TLR7 signaling has predominantly been studied in APC where it is linked to IRF7, NFκB and JNK activation through either MyD88/IRAK4-dependent or -independent pathways. In order to examine the consequences of TLR7 signaling on CD4^+ T cells in relation to ‘conventional’ TLR signaling, ex vivo isolated CD4^+ T cells from healthy individuals were stimulated with IMQ and the phosphorylation status of IRAK4, JNK, NFkB (p65), p38 MAPK and IRF7 was examined by flow cytometry (FIG. 31A). […] One of the targets that are phosphorylated by activated JNK is Jun, a component of AP-1, which is an essential transcription factor involved in costimulatory signal transduction. It was determined if inhibition of JNK activity by IMQ could explain, at least in part, the anergic phenotype observed in CD4^+ T cells after IMQ stimulation in the presence of full stimulation with TCR and costimulatory signals. To test this hypothesis, CD4^+ T cells were stimulated with PMA and Ionomycin in the presence or absence of IMQ, and the phosphorylation status of JNK and Jun was examined at different time points. NFκB and p38 were used as positive controls (FIGS. 31B and 31C).

memory T cells = assay: IMQ pretreatment, washout, rest and restimulation with anti-CD3 and anti-CD28; conditions: IMQ 2 hours, 12 hours rest, anti-CD3 and anti-CD28
Description: as §2
To determine if pretreatment of CD4^+ T cells with IMQ would be sufficient to diminish their subsequent cytokine secretion and proliferative response to a full stimulation, memory T cells were pre-treated with IMQ for 2 hours and rested for 12 hours after washout to remove traces of IMQ and then stimulated with anti-CD3 and anti-CD28 for 3 days.

CD14^+ monocytes = assay: Activation of CD14+ monocytes (surface staining, cytokine ELISA)
Description: Cell isolation and FACS sorting of T cell populations. Peripheral blood mononuclear cells (PBMC) were isolated from healthy donors by Ficoll Hypaque gradient centrifugation. Total CD4^+ T cells were isolated by negative selection using CD4^+ T cell isolation kit (StemCell Technologies, Vancouver, BC) and stained for fluorescence-activated cell sorting (FACS) with the following antibodies: anti-CD45RO (clone UCHL1), CD45RA (clone H1100), CD25 (clone M-A251) (all from BD Biosciences) and CD127 (clone eBioRDR5) from eBioscience (San Diego, Calif.). The Treg (CD4^+CD25^hiCD127^low/neg) memory T cell (CD4^+CD45RA^−CD45RO^+CD25^low/neg+) and naïve T cell (CD4^+CD45RA^+CD45RO^−CD25^low/neg) populations were sorted on a FACS Aria (BD Biosciences). Unless specified, CD4^+ T cells used in the experiments were Treg-depleted CD4^+ T cells and they were sorted as CD4^+CD25^pos/lowCD127^+. The purity of the sorted CD4^+ T cell population was >98% as assessed by CD3 and CD4 staining after sort. CD14^+ cells were isolated by positive selection using EasySep™ Human CD14 Positive Selection Kit (StemCell Technologies).
as §1, §2

CD4^+ T cells [3] = assay: Intracellular cytokine staining after PMA and ionomycin restimulation; conditions: increasing doses of IMQ; day 4, 4 hour PMA and ionomycin
Description: Cell activation and intracellular staining. T populations were stimulated with 1 μg/ml anti-CD3, 1 μg/ml anti-CD28 and 10 U/ml IL-2 in the presence or absence of TLR ligands. […] For both extracellular and intracellular stainings, LIVE/DEAD reagent (Molecular Probes) was used to exclude dead cells before surface staining. […] Samples were run on a BD Fortessa instrument and analyzed with FlowJo (TreeStar).

CD4^+ T cells [4] = assay: Intracellular calcium measurement (INDO-1AM)
Description: Intracellular calcium measurements. Ex vivo isolated CD4^+ T cells were labeled with 5 μM INDO-1AM for one hour at 37° C. in PBS, 1 mM Ca^2+. Cells were washed to remove traces of INDO-1AM, resuspended in buffer at 10^6 cells/ml and incubated for 30 minutes at 37° C. before analysis. When necessary, IRS661 was added at the indicated concentration during the 30 minute incubation. For acquisition, the sample was acquired for approximately 3 minutes to obtain basal levels of calcium and subsequently IMQ or other reagents were added at the indicated concentrations. Samples were acquired for a minimum of 10 minutes on a BD Fortessa instrument and analysed with FlowJo software.

CD4^+ T cells [5] = assay: Anergy-related gene expression, TaqMan real-time PCR
Description: Quantification of mRNA expression levels by RT-PCR. RNA was isolated using QIAGEN RNeasy Micro Plus Kit (QIAGEN, Valencia, Calif.), following manufacturer's guidelines and converted to cDNA by reverse transcription (RT) with random hexamers and Multiscribe RT (TQMN, Reverse Transcription Reagents; Applied Biosystems, Foster City, Calif.). For mRNA gene expression assays, probes were purchased from Applied Biosystems (Table 2) and the reactions were set up following manufacturer's guidelines and run on a StepOne Real-Time PCR System (Applied Biosystems). Values are represented as the difference in Ct values normalized to β2-microglobulin for each sample as per the following formula: Relative RNA expression=(2^−dCt)×1000.
To examine whether TLR7 stimulation and subsequent NFAT dephosphorylation induces the expression of anergy-related genes, CD4^+ T cells were incubated for 2-16 hours with IMQ in the presence or absence of the TLR7 inhibitory sequence IRS661 and RNA was isolated to examine the hypothesis that TLR7 engagement induced expression of anergy-related genes previously described. As a control for anergy-related gene expression, CD4^+ T cells were incubated with either ionomycin and PMA or ionomycin alone. […] The effect observed in the regulation of these genes was TLR7-specific, as preincubation of CD4^+ T cells with IRS661 before IMQ treatment abrogated the increase in anergy-related gene expression.

[6] = with PMA and Ionomycin stimulation
[7] = with PMA and Ionomycin stimulation, listed as IMQ

## CC(C)Cn1cnc2c(N)nc3ccccc3c21 [Imiquimod]
CD4^+ T cells [1]; ELISA day 3
  IL-10 secretion: neither Foxp3 expression (FIG. 11B-11C) or IL-10 secretion was increased
CD4^+ T cells [1]; day 4
  Foxp3 expression: neither Foxp3 expression (FIG. 11B-11C) or IL-10 secretion was increased
CD4^+ T cells [2]; IMQ alone vs vehicle
  phosphorylation of IRAK4: induced
  phosphorylation of IRF7: induced
  phosphorylation of NFκB: induced
  phosphorylation of p38: induced
CD4^+ T cells [2]; IMQ alone vs vehicle, basal levels
  phosphorylated JNK: decreased the basal levels
CD4^+ T cells [2]; after stimulation
  Jun gene expression: decreased
CD4^+ T cells [2]; [6]
  NFκB phosphorylation: did not show an additive effect
  p38 phosphorylation levels: further increased
CD4^+ T cells [2]; [7]
  JNK phosphorylation: inhibited; also recorded: decreased
  Jun phosphorylation: decreased
Memory T cells
  IFNγ production after restimulation: significantly decreased
  IL-2 production after restimulation: significantly decreased
CD14^+ monocytes; 5 μg/ml IMQ, 24 hours
  CD25 protein expression: upregulation
  CD80 protein expression: upregulation
  CD86 protein expression: downregulation
  HLA-DR protein expression: upregulation
CD14^+ monocytes; ELISA
  IL-6 secretion: secreted significant levels
  IL-10 secretion: decreased
  IL-113 secretion: secreted significant levels
  TNFα secretion: secreted significant levels
CD4^+ T cells [3]
  frequency of cytokine-producing cells: diminished in a dose-dependent manner
CD4^+ T cells [4]
  duration of the increase in intracellular calcium concentration: at least 20 minutes
CD4^+ T cells [4]; INDO-1AM ratio over time
  intracellular calcium concentration: significant and sustained (maintained for at least 20 minutes, FIGS. 23A and 23B) increase
CD4^+ T cells [5]; IMQ treatment, 2 hours
  expression of Sirt1, Itch, Cblb, Dgka, Egr2 and Egr3: all of them but Egr2 showed a significant upregulation
CD4^+ T cells [5]; NFAT1-deficient cells vs non-target transduced, IMQ 2 hours
  expression of anergy-related genes: failed to upregulate
CD4^+ T cells [5]; compared to control and PMA and ionomycin
  expression of 12 anergy-related genes: Ten of the 12 anergy-related genes examined were significantly upregulated
